Literature values in US20070135395A1, “Novel method for the preparation of intermediates useful for the synthesis fo vitamin d analogues” (Leo Pharma A/S, priority 2004, published 2007).

Test system: epidermal keratinocytes
Details: cited: Castelijins et al., Acta Derm. Venereol. 79, 11, 1999

In the case of `C=C1/C(=C\C=C2/CCC[C@]3(C)[C@@H]([C@H](C)/C=C/[C@@H](O)C4CC4)CC[C@@H]23)C[C@@H](O)C[C@@H]1O` [Calcipotriol, (5Z, 7E, 22E, 24S)-24-cyclopropyl-9,10-secochola-5,7,10(19),22-tetraene-1α-3β-24-triol], the “activity in inhibiting undesirable proliferation of epidermal keratinocytes” value is listed as “strong activity”.
